# From patent US6656932B2, “Benzo thiadiazine matrix metalloproteinase inhibitors” (Warner-Lambert Company, priority 2001, dated 2003)
# Structures can show the parent of a compound that is named as a salt.
# Target: T1, MMP-7FL (full-length matrilysin) (Homo sapiens, UniProt P09237)
# T1 sequence (P09237 95-267): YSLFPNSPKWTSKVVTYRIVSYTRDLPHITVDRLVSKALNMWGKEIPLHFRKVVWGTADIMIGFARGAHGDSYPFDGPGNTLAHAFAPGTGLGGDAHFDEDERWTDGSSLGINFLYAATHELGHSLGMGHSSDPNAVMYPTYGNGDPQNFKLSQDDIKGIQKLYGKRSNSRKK
# Test: Thiopeptolide hydrolysis assay, MMP-7FL
# Type: biochemical
# Settings: Table 1; thiopeptolide substrate, HEPES pH 7.0; read-out: MMP07 (FL) IC50
# From the text: (§1) The invention compounds of Formula I have been evaluated in standard assays for their ability to inhibit the catalytic activity of various MMP enzymes.
# (§2) Thiopeptolide substrates show virtually no decomposition or hydrolysis at or below neutral pH in the absence of a matrix metalloproteinase enzyme.
# (§3) Several representative compounds have been evaluated for their ability to inhibit various matrix metalloproteinase enzymes.
row,Structure (SMILES),IC50 [µM]
1,"CN1C(=O)N(Cc2ccccc2)S(=O)(=O)c2cc(C(=O)OCc3ccccc3)ccc21 [Example 1, 2-Benzyl-4-methyl-1,1,3-trioxo-1,2,3,4-tetrahydro-1l^6-benzo[1,2,4]thiadiazine-7-carboxylic Acid Benzyl Ester]",44

# Target: MMP-13CD (catalytic domain of collagenase 3) (Homo sapiens, UniProt P45452)
# Test: Thiopeptolide hydrolysis assay, MMP-13CD
# Type: biochemical
# Settings: Table 1; thiopeptolide substrate, HEPES pH 7.0; read-out: MMP13 (CD) IC50
# From the text: as §1, §2, §3
row,Structure (SMILES),IC50 [µM]
1,"CN1C(=O)N(Cc2ccccc2)S(=O)(=O)c2cc(C(=O)OCc3ccccc3)ccc21 [Example 1, 2-Benzyl-4-methyl-1,1,3-trioxo-1,2,3,4-tetrahydro-1l^6-benzo[1,2,4]thiadiazine-7-carboxylic Acid Benzyl Ester]",0.2
2,"CN1C(=O)N(Cc2ccccc2)S(=O)(=O)c2cc(C(=O)NCc3ccccc3)ccc21 [Example 2, 2-Benzyl-4-methyl-1,1,3-trioxo-1,2,3,4-tetrahydro-1l^6-benzo[1,2,4]thiadiazine-7-carboxylic Acid Benzylamide]",0.88
3,"CN1C(=O)N(Cc2ccccc2)S(=O)(=O)c2cc(C(=O)NCc3ccncc3)ccc21 [Example 3, 2-Benzyl-4-methyl-1,1,3-trioxo-1,2,3,4-tetrahydro-1l^6-benzo[1,2,4]thiadiazine-7-carboxylic acid (pyridin-4-ylmethyl)-amide]",0.51

# Same assay, conditions: Table 2; thiopeptolide substrate, HEPES pH 7.0; read-out: IC50 (μM) Versus Certain MMPs: MMP13 (CD)
row,Structure (SMILES),IC50 [µM]
1,"CN1C(=O)N(Cc2ccccc2)S(=O)(=O)c2cc(C(=O)NCc3ccc4[nH]ccc4c3)ccc21 [Example 4, 2-Benzyl-4-methyl-1,1,3-trioxo-1,2,3,4-tetrahydro-1l^6-benzo[1,2,4]thiadiazine-7-carboxylic acid (1H-indol-5-ylmethyl)-amide]",> 30
2,"CN1C(=O)N(Cc2ccccc2)S(=O)(=O)c2cc(C(=O)NCc3ccc(CCS(=O)(=O)NC(C)(C)C)cc3)ccc21 [Example 6, 2-Benzyl-4-methyl-1,1,3-trioxo-1,2,3,4-tetrahydro-1l^6-benzo[1,2,4]thiadiazine-7-carboxylic acid 4-(2-tert-butylsulfamoyl-ethyl)-benzylamide]",> 30
3,"CN1C(=O)N(Cc2ccccc2)S(=O)(=O)c2cc(C(=O)NCc3cc4ccccc4[nH]3)ccc21 [Example 7, 2-Benzyl-4-methyl-1,1,3-trioxo-1,2,3,4-tetrahydro-1l^6-benzo[1,2,4]thiadiazine-7-carboxylic acid (1H-indol-2-ylmethyl)-amide]",> 30
4,"CN1C(=O)N(Cc2ccccc2)S(=O)(=O)c2cc(C(=O)NCc3ccc(CCS(N)(=O)=O)cc3)ccc21 [Example 8, 2-Benzyl-4-methyl-1,1,3-trioxo-1,2,3,4-tetrahydro-1l^6-benzo[1,2,4]thiadiazine-7-carboxylic acid 4-(2-sulfamoyl-ethyl)-benzylamide]",63
5,"CN1C(=O)N(Cc2ccc(C(=O)OC(C)(C)C)cc2)S(=O)(=O)c2cc(C(=O)NCc3ccccc3)ccc21 [Example 10, 4-(7-Benzylcarbamoyl-4-methyl-1,1,3-trioxo-3,4-dihydro-1H-1l^6-benzo[1,2,4]thiadiazin-2-ylmethyl)-benzoic Acid Tert-Butyl Ester]",> 30
6,"COc1ccc(CNC(=O)c2ccc3c(c2)S(=O)(=O)N(Cc2ccc(C(=O)OC(C)(C)C)cc2)C(=O)N3C)cc1 [Example 12, 4-[7-(4-Methoxy-benzylcarbamoyl)-4-methyl-1,1,3-trioxo-3,4-dihydro-1H-1l^6-benzo[1,2,4]thiadiazin-2-ylmethyl]-Benzoic Acid Tert-Butyl Ester]",> 30
7,"COc1ccc(CNC(=O)c2ccc3c(c2)S(=O)(=O)N(Cc2ccc(S(C)(=O)=O)cc2)C(=O)N3C)cc1 [Example 15, 2-(4-Methanesulfonyl-benzyl)-4-methyl-1,1,3-trioxo-1,2,3,4-tetrahydro-1l^6-benzo[1,2,4]thiadiazine-7-carboxylic acid 4-methoxy-benzylamide]",11
8,"COc1ccc(CNC(=O)c2ccc3c(c2)S(=O)(=O)N(Cc2ccc([N+](=O)[O-])cc2)C(=O)N3C)cc1 [Example 17, 4-Methyl-2-(4-nitro-benzyl)-1,1,3-trioxo-1,2,3,4-tetrahydro-1l^6-benzo[1,2,4]thiadiazine-7-carboxylic acid 4-methoxy-benzylamide]",0.615
9,"COc1ccc(CNC(=O)c2ccc3c(c2)S(=O)(=O)N(Cc2ccc(-c4ccccc4)cc2)C(=O)N3C)cc1 [Example 23, 2-Biphenyl-4-ylmethyl-4-methyl-1,1,3-trioxo-1,2,3,4-tetrahydro-1l^6-benzo[1,2,4]thiadiazine-7-carboxylic acid 4-methoxy-benzylamide]",> 30
10,"COc1ccc(CNC(=O)c2ccc3c(c2)S(=O)(=O)N(Cc2ccc(C(=O)OCCN(C)C)cc2)C(=O)N3C)cc1 [Example 26, 4-[7-(4-Methoxy-benzylcarbamoyl)-4-methyl-1,1,3-trioxo-3,4-dihydro-1H-1l^6-benzo[1,2,4]thiadiazin-2-ylmethyl]-benzoic acid 2-dimethylamino-ethyl Ester Hydrochloride]",2.2
11,"COc1ccc(CNC(=O)c2ccc3c(c2)S(=O)(=O)N(Cc2ccc(N)cc2)C(=O)N3C)cc1 [Example 33, 2-(4-Amino-benzyl)-4-methyl-1,1,3-trioxo-1,2,3,4-tetrahydro-1l^6-benzo[1,2,4]thiadiazine-7-carboxylic acid 4-methoxy-benzylamide]",8.8
12,"CCC#CCN1C(=O)N(C)c2ccc(C(=O)NCc3ccc(OC)cc3)cc2S1(=O)=O [Example 35, 4-methyl-1,1,3-trioxo-2-pent-2-ynyl-1,2,3,4-tetrahydro-1l^6-benzo[1,2,4]thiadiazine-7-carboxylic Acid 4-methoxy-benzylamide]",1.4
13,"COc1ccc(CNC(=O)c2ccc3c(c2)S(=O)(=O)N(C(C)c2ccccc2)C(=O)N3C)cc1 (centres unmarked) [Example 36, 4-Methyl-1,1,3-trioxo-2-(1-phenyl-ethyl)-1,2,3,4-tetrahydro-1l^6-benzo[1,2,4]thiadiazine-7-carboxylic Acid 4-methoxy-benzylamide]",6.3
14,"COc1ccc(CNC(=O)c2ccc3c(c2)S(=O)(=O)N(CCCCCC#N)C(=O)N3C)cc1 [Example 37, 2-(5-Cyano-pentyl)-4-methyl-1,1,3-trioxo-1,2,3,4.tetrahydro-1l^6-benzo[1,2,4]thiadiazine-7-carboxylic Acid 4-methoxy-benzylamide]",3.2
15,"C/C=C/CN1C(=O)N(C)c2ccc(C(=O)NCc3ccc(OC)cc3)cc2S1(=O)=O [Example 38, 2-(E)-But-2-enyl-4-methyl-1,1,3-trioxo-1,2,3,4-tetrahydro-1l^6-benzo[1,2,4]thiadiazine-7-carboxylic Acid 4-methoxy-benzylamide]",2.2
16,"CC/C=C/CN1C(=O)N(C)c2ccc(C(=O)NCc3ccc(OC)cc3)cc2S1(=O)=O [Example 39, 4-Methyl-1,1,3-trioxo-2-(E)-pent-2-enyl-1,2,3,4-tetrahydro-1l^6-benzo[1,2,4]thiadiazine-7-carboxylic Acid 4-methoxy-benzylamide]",1.5
17,"C=C(C)CN1C(=O)N(C)c2ccc(C(=O)NCc3ccc(OC)cc3)cc2S1(=O)=O [Example 40, 4-Methyl-2-(2-methyl-allyl)-1,1,3-trioxo-1,2,3,4-tetrahydro-1l^6-benzo[1,2,4]thiadiazine-7-carboxylic Acid 4-methoxy-benzylamide]",1.7
18,"COc1ccc(CNC(=O)c2ccc3c(c2)S(=O)(=O)N(CC=C(C)C)C(=O)N3C)cc1 [Example 41, 4-Methyl-2-(3-methyl-but-2-enyl)-1,1,3-trioxo-1,2,3,4-tetrahydro-1l^6-benzo[1,2,4]thiadiazine-7-carboxylic Acid 4-methoxy-benzylamide]",1.9
19,"COc1ccc(CNC(=O)c2ccc3c(c2)S(=O)(=O)N(CCS(=O)(=O)c2ccc(C)cc2)C(=O)N3C)cc1 [Example 42, 4-Methyl-1,1,3-trioxo-2-[2-(toluene-4-sulfonyl)-ethyl]-1,2,3,4-tetrahydro-1l^6-benzo[1,2,4]thiadiazine-7-carboxylic Acid 4-methoxy-benzylamide]",100
20,"COc1ccc(CNC(=O)c2ccc3c(c2)S(=O)(=O)N(CCNC(=O)c2ccccc2)C(=O)N3C)cc1 [Example 44, 4-Methyl-1,1,3-trioxo-2-{2-[(1-phenyl-methanoyl)-amino]-ethyl}-1,2,3,4-tetrahydro-1l^6-benzo[1,2,4]thiadiazine-7-carboxylic Acid 4-methoxy-benzylamide]",86
21,"COc1ccc(CNC(=O)c2ccc3c(c2)S(=O)(=O)N(Cc2ccc4nonc4c2)C(=O)N3C)cc1 [Example 45, 2-Benzo[1,2,5]oxadiazol-5-ylmethyl-4-methyl-1,1,3-trioxo-1,2,3,4-tetrahydro-1l^6-benzo[1,2,4]thiadiazine-7-carboxylic Acid 4-methoxy-benzylamide]",0.7
22,"COC(=O)Nc1cc(CN2C(=O)N(C)c3ccc(C(=O)NCc4ccc(OC)cc4)cc3S2(=O)=O)on1 [Example 46, {5-[7-(4-Methoxy-benzylcarbamoyl)-4-methyl-1,1,3-trioxo-3,4-dihydro-1H-1l^6-benzo[1,2,4]thiadiazin-2-ylmethyl]-isoxazol-3-yl}-carbamic Acid Methyl Ester]",1.7
23,"COc1ccc(CNC(=O)c2ccc3c(c2)S(=O)(=O)N(Cc2cscn2)C(=O)N3C)cc1 [Example 47, 4-Methyl-1,1,3-trioxo-2-thiazol-4-ylmethyl-1,2,3,4-tetrahydro-1l^6-benzo[1,2,4]thiadiazine-7-carboxylic Acid 4-methoxy-benzylamide]",13

# Target: MMP-3CD (catalytic domain of stromelysin-1) (Homo sapiens, UniProt P08254)
# Test: Thiopeptolide hydrolysis assay, MMP-3CD
# Type: biochemical
# Settings: Table 1; thiopeptolide substrate, MES buffer pH 6.0; read-out: MMP03 (CD) IC50
# Description: as §1, §2, §3
# It should be appreciated that the assay buffer used with MMP-3CD was 50 mM of N-morpholinoethane sulfonate (“MES”) at pH 6.0 rather than the HEPES buffer at pH 7.0 described above.
# Sequence of MMP-3CD (catalytic domain of stromelysin-1) (P08254 100-272 limits assumed): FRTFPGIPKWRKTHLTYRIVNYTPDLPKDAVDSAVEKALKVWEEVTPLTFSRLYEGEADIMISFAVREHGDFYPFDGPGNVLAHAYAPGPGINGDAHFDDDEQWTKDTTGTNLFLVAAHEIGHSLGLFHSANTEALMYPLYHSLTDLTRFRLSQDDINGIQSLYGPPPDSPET
row,Structure (SMILES),IC50 [µM]
1,"CN1C(=O)N(Cc2ccccc2)S(=O)(=O)c2cc(C(=O)OCc3ccccc3)ccc21 [Example 1, 2-Benzyl-4-methyl-1,1,3-trioxo-1,2,3,4-tetrahydro-1l^6-benzo[1,2,4]thiadiazine-7-carboxylic Acid Benzyl Ester]",85

# Same assay, conditions: Table 2; thiopeptolide substrate, MES buffer pH 6.0; read-out: IC50 (μM) Versus Certain MMPs: MMP03 (CD)
row,Structure (SMILES),IC50 [µM]
1,"COc1ccc(CNC(=O)c2ccc3c(c2)S(=O)(=O)N(Cc2ccc([N+](=O)[O-])cc2)C(=O)N3C)cc1 [Example 17, 4-Methyl-2-(4-nitro-benzyl)-1,1,3-trioxo-1,2,3,4-tetrahydro-1l^6-benzo[1,2,4]thiadiazine-7-carboxylic acid 4-methoxy-benzylamide]",16
